{"source": "patent US6287840A", "about": "(Axys Pharmaceuticals, Inc., priority 1999, dated 2001)", "key": {"[1]": {"test_system": "U87MG", "assay": "Matrigel barrier migration assay, U87MG", "assay_type": "cell-based, human", "parameters": "dose or concentration left out as unconfirmed", "procedure": "(§1) Two permanent human glioma cell lines (U87MG and U251MGn) and a well characterized low passage primary culture derived from a CB-positive glioblastoma (HF66) were used to assess the migratory behavior in the Matrigel barrier migration assay in the presence of graded concentrations of four compounds.\n(§2) Using the Matrigel assay, Mu-Leu-HphVSPh, Mu-Tyr-HphVSPh, Mu-Phe-HphVSPh, and Mu-Tyr(I2)-HphVSPh (all at 10 mM) inhibited U251MGn by 67, 56, 29, & 20% respectively, while the U87MG cells were inhibited 53, 75, 63, & 56% respectively. The primary culture HF66 cells were inhibited only 10% by these compounds at the same concentration."}, "[2]": {"test_system": "Trypanosoma cruzi amastigote infected macrophages", "assay": "In vitro antiprotozoal activity, Trypanosoma cruzi", "assay_type": "cell-based", "parameters": "key to percentage inhibition, T. cruzi: the term \"T\" indicates the molecule to have displayed cytotoxicity", "procedure": "(§3) In this table, the in vitro antiprotozoal activities of the indicated compounds were measured as percentage inhibition of Leishmania donovani amastigote infecteda mouse peritoneal macrophages, Trypanosoma cruzi amastigote infected macrophages, and Trypanosoma brucei extracellular bloodstream forms."}, "[3]": {"test_system": "mouse malarial parasite Plasmodium vinckei", "assay": "In vitro protease activity of malarial parasite, substrate Z-Phe-Arg-AMC", "assay_type": "biochemical", "conditions": "cells printed in nM; read-out: P. vinckei IC50 (murine)", "from_the_text": "The following table summarizes the comparative IC50 values for selected cysteine protease inhibitors against the human malarial parasite Plasmodium falciparum and the mouse malarial parasite Plasmodium vinckei. The substrate used to measure in vitro protease activity was Z-Phe-Arg-AMC."}, "[4]": {"test_system": "U251MGn", "assay": "Matrigel barrier migration assay, U251MGn", "assay_type": "cell-based, human", "parameters": "dose or concentration left out as unconfirmed", "procedure": "as §1, §2"}, "[5]": {"test_system": "Leishmania donovani amastigote infected mouse peritoneal macrophages", "assay": "In vitro antiprotozoal activity, Leishmania donovani", "assay_type": "cell-based", "parameters": "key to percentage inhibition, L. donovani: the term \"T\" indicates the molecule to have displayed cytotoxicity", "procedure": "as §3"}, "[6]": {"test_system": "Trypanosoma brucei extracellular bloodstream forms", "assay": "In vitro antiprotozoal activity, Trypanosoma brucei", "assay_type": "cell-based", "procedure": "as §3"}, "[7]": {"test_system": "T. cruzi", "assay": "T. cruzi infected irradiated J774 cells", "assay_type": "cell-based", "parameters": "dose or concentration left out as unconfirmed", "conditions": "thereafter without inhibitor; compounds listed in decreasing order of effectiveness", "procedure": "Irradiated J774 cells were infected with T. cruzi and simultaneously treated with […] of peptidyl vinyl derivatives for 5 days; thereafter without inhibitor. The following compounds were effective in decreasing order: Mu-Phe-ArgVSPh, Boc-Tyr(I2)-HphVSPh, Mu-Phe-VaIVSPh, Boc-Tic-HphVSPh, Mu-Phe-Ser(OBzl)VSPh, Mu-Leu-HphVSPh, Mu-Tyr(I2)-HphVSPh, Mu-Phe-LysVSPh, Mu-Tic-HphVSPh."}, "[8]": {"test_system": "P. carinii", "assay": "Growth of P. carinii in vitro", "assay_type": "cell-based", "conditions": "10 mM each", "procedure": "Mu-Leu-HphVSPh and Mu-Phe-LysVSPh.HBr were evaluated for their effects on the growth of P. carinii in vitro, according to the procedure of M. S. Bartlett et al. [Antimicrotubule Benzimidazoles Inhibit In Vitro Growth of P. carinii, M. S. Bartlett, T. D. Edlind, M. M. Durkin, M. M. Shaw, S. F. Queener, and J. W. Smith, (1992) Antimicrobial Agents and Chemotherapy, 36, 779-782; Antimicrobial susceptibility of P. carinii in culture, M. S. Bartlett, R. Eichholtz, and J. W. Smith (1985) Diagn. Microbiol. Infect. Dis.; 3, 381-387. Mu-Leu-HphVSPh and Mu-Phe-LysVSPh.HBr (10 mM each) inhibited the growth of P. carinii 64% and 50% respectively."}, "[9]": {"biological_target": "T1, Cathepsin L from rat liver (Rattus norvegicus, UniProt P07154)", "T1 construct": "Cathepsin L from rat liver; from tissue; host or cells: rat liver", "T1 sequence (P07154 114-288 limits assumed)": "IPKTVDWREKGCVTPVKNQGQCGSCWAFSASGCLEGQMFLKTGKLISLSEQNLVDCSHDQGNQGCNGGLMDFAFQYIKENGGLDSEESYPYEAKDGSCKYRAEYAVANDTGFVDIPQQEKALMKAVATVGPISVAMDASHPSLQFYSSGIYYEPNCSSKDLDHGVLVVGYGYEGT", "T1 sequence (P07154 291-334 limits assumed)": "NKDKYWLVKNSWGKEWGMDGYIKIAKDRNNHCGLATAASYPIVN", "assay": "Inhibition of cathepsin L, Z-Phe-Arg-AMC fluorescence progress curves", "assay_type": "biochemical", "conditions": "for Ki: corrected for substrate; for kobs /[I]* (approximate second-order inactivation constant): values marked *; for kobs /[I]* (approximate second-order inactivation constant) / k/KI (kirr/KI): 25° C., pH 6.2; for k/KI (kirr/KI): values without asterisk", "method_in_brief": "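Progress curves of AMC release (380/460 nm) over at least 3 inactivation half-times were fitted to kobs, reported as kobs/[I] or, via 1/[I] vs 1/kobs, kirr, KI (substrate-corrected) and kirr/KI.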"}, "[10]": {"test_system": "calpain", "assay": "Inhibition (inactivation) of calpain, Suc-Leu-Tyr-AMC", "assay_type": "biochemical", "conditions": "values marked * (or %); pH 7.5, 5 mM CaCl2, 25° C.", "procedure": "The inhibitors were tested against calpain at 1 or 2% as for the other enzymes. The reaction conditions were 50 mM Tris, pH 7.5, 5 mM CaCl2, 2.5 mM DTT, assayed at 25° C. The substrate was 100 μM Suc-Leu-Tyr-AMC."}}, "note": "Where two headings read alike, the source gives them in different places."}
{"smiles": "CC(C)C[C@H](NC(=O)N1CCOCC1)C(=O)N[C@H](/C=C/S(=O)(=O)c1ccccc1)CCc1ccccc1", "note": "[Mu-Leu-HphVSPh, (S)-(E)-3-(4-morpholinecarbonylleucyl)amino-5-phenyl-1-phenylsulfonyl-1-pentene]", "values": [{"measurement": "inhibition of U87MG migration", "setting": "[1]", "result": 53, "unit": "%"}, {"measurement": "percentage inhibition, T. cruzi", "setting": "[2]; 3 uM", "result": 0, "unit": "%"}, {"measurement": "percentage inhibition, T. cruzi", "setting": "[2]; 10 uM", "result": 0, "unit": "%"}, {"measurement": "percentage inhibition, T. cruzi", "setting": "[2]; 30 uM", "result": 11.4, "unit": "%"}, {"measurement": "percentage inhibition, T. cruzi", "setting": "[2]; 90 uM", "result": "T"}, {"measurement": "IC50", "setting": "[3]", "result": 200, "unit": "nM"}, {"measurement": "inhibition of U251MGn migration", "setting": "[4]", "result": 67, "unit": "%"}, {"measurement": "percentage inhibition, L. donovani", "setting": "[5]; 3 uM", "result": 4.6, "unit": "%"}, {"measurement": "percentage inhibition, L. donovani", "setting": "[5]; 10 uM", "result": 0, "unit": "%"}, {"measurement": "percentage inhibition, L. donovani", "setting": "[5]; 30 uM", "result": 15.3, "unit": "%"}, {"measurement": "percentage inhibition, L. donovani", "setting": "[5]; 90 uM", "result": "T"}, {"measurement": "percentage inhibition, T. brucei", "setting": "[6]; 3 uM", "result": 11.2, "unit": "%"}, {"measurement": "percentage inhibition, T. brucei", "setting": "[6]; 10 uM", "result": 82.2, "unit": "%"}, {"measurement": "percentage inhibition, T. brucei", "setting": "[6]; 30 uM", "result": 84.7, "unit": "%"}, {"measurement": "percentage inhibition, T. brucei", "setting": "[6]; 90 uM", "result": 100, "unit": "%"}, {"measurement": "effectiveness against T. cruzi in J774 cells", "setting": "[7]", "result": "effective"}, {"measurement": "inhibition of the growth of P. carinii", "setting": "[8]", "result": 64, "unit": "%"}, {"measurement": "kirr", "setting": "[9]", "result": 0.40, "unit": "s⁻¹"}, {"measurement": "Ki", "setting": "[9]", "result": 0.81, "unit": "µM"}, {"measurement": "kobs /[I]* (approximate second-order inactivation constant)", "setting": "[9]", "result": "28,700 M^-1 sec^-1"}, {"measurement": "k/KI (kirr/KI)", "setting": "[9]", "result": "490,000 M^-1 sec^-1"}]}
{"smiles": "O=C(N[C@H](/C=C/S(=O)(=O)c1ccccc1)CCc1ccccc1)C(Cc1ccccc1)NC(=O)N1CCOCC1", "note": "(stereo partly drawn) [Mu-Phe-HphVSPh, (S)-(E)-3-(4-morpholinecarbonyl-phenylalanyl)amino-5-phenyl-1-phenylsulfonyl-1-pentene]", "values": [{"measurement": "inhibition of U87MG migration", "setting": "[1]", "result": 63, "unit": "%"}, {"measurement": "percentage inhibition, T. cruzi", "setting": "[2]; 3 uM", "result": 10, "unit": "%"}, {"measurement": "percentage inhibition, T. cruzi", "setting": "[2]; 10 uM", "result": 10, "unit": "%"}, {"measurement": "percentage inhibition, T. cruzi", "setting": "[2]; 30 uM", "result": 50.1, "unit": "%"}, {"measurement": "percentage inhibition, T. cruzi", "setting": "[2]; 90 uM", "result": "T"}, {"measurement": "IC50", "setting": "[3]", "result": 50, "unit": "nM"}, {"measurement": "inhibition of U251MGn migration", "setting": "[4]", "result": 29, "unit": "%"}, {"measurement": "percentage inhibition, L. donovani", "setting": "[5]; 3 uM", "result": 0, "unit": "%"}, {"measurement": "percentage inhibition, L. donovani", "setting": "[5]; 10 uM", "result": 0, "unit": "%"}, {"measurement": "percentage inhibition, L. donovani", "setting": "[5]; 30 uM", "result": 9.4, "unit": "%"}, {"measurement": "percentage inhibition, L. donovani", "setting": "[5]; 90 uM", "result": "T"}, {"measurement": "kobs /[I]*", "setting": "[10]", "result": "< 50", "unit": "M⁻¹ s⁻¹"}, {"measurement": "ED50, T. brucei", "setting": "[6]", "result": 2.19, "unit": "µM"}, {"measurement": "percentage inhibition, T. brucei", "setting": "[6]; 1 uM", "result": 10.2, "unit": "%"}, {"measurement": "percentage inhibition, T. brucei", "setting": "[6]; 3 uM", "result": 90.5, "unit": "%"}, {"measurement": "percentage inhibition, T. brucei", "setting": "[6]; 10 uM", "result": 82.7, "unit": "%"}, {"measurement": "percentage inhibition, T. brucei", "setting": "[6]; 30 uM", "result": 100, "unit": "%"}, {"measurement": "percentage inhibition, T. brucei", "setting": "[6]; 90 uM", "result": 100, "unit": "%"}, {"measurement": "kirr", "setting": "[9]", "result": 0.24, "unit": "s⁻¹"}, {"measurement": "Ki", "setting": "[9]", "result": 1, "unit": "µM"}, {"measurement": "Ki", "setting": "[9]; listed as Mu-Phe-Hph-VSPh", "result": 1.1, "unit": "µM"}, {"measurement": "kirr", "setting": "[9]; listed as Mu-Phe-Hph-VSPh", "result": 0.23, "unit": "s⁻¹"}, {"measurement": "kobs /[I]* (approximate second-order inactivation constant)", "setting": "[9]", "result": "260,000 M^-1 sec^-1"}, {"measurement": "k/KI (kirr/KI)", "setting": "[9]", "result": "224,000 M^-1 sec^-1"}, {"measurement": "k/KI (kirr/KI)", "setting": "[9]; listed as Mu-Phe-Hph-VSPh", "result": "201,000 M^-1 sec^-1"}]}
